Laboratory results as given in patent publication US8501911B2, “Methods of reducing inflammation and mucus hypersecretion” (Biomarck Pharmaceuticals, Ltd, priority 1999, dated 2013).
Blank lines part the entries; values can stand above or below the molecule they belong to. Residues, ends and D or L forms follow the SMILES beside them. *: point of attachment. Myristoyl = CCCCCCCCCCCCCC(=O)*

Assays:
[1] = tested on: NK-92 cells; test: Inhibition of release of granzyme from NK-92 cells; assay type: cell-based, human; settings: for % Inhibition Granzyme: at 50 μM of test peptide
Description: Measurement of NK cell granzyme secretion: Granzyme secreted from NK-92 cells was assayed by measuring hydrolysis of Nα-benzyloxycarbonyl-L-lysine thiobenzyl ester (BLT, EMD Bioscience, Inc.) essentially as described previously (Takayama H. Trenn G, Sitkovsky M V. A novel cytotoxic T lymphocyte activation assay. J. Immunol. Methods 104:183-190, 1987). An aliquot of 50 μl of supernatant was transferred to a 96-well plate, and 150 μl of 0.2 mM solution of BLT and 0.22 mM DTNB (Sigma-Aldrich Co.) in phosphate-buffered saline (PBS, pH 7.2) was added to the supernatant. Absorbance at 410 nm was measured after incubation for 30 min at room temperature. Results were expressed as percentage of total cellular enzyme content, using the amount obtained in the same number of triton X-100-lysed cells.
(§1) Because standard granzyme from NK-92 cells was not available to use for quantification, we measured both released and intracellular (from lysed cells) levels of granzyme, and expressed the released granzyme as a percentage of total (intracellular and released) for each. To measure intracellular granzyme from NK-92 cells, appropriate aliquots of 0.1% triton X-100-lysed cells were taken for quantification of the enzyme as described above. All data are expressed as percentage of control to minimize variability between cultures.

[2] = tested on: HL-60 clone 15 cells; test: Inhibition of eosinophil peroxidase (EPO) release from HL-60 clone 15 cells; assay type: cell-based, human; settings: at 50 μM of test peptide; 100 nM PMA 2 hours
Source text: The human promyelocytic cell line (Fischkoff S A, Graded increase in probability of eosinophilic differentiation of HL-60 promyelocytic leukemia cells induced by culture under alkaline conditions. Leuk. Res., 12:679-686, 1988; Rosenberg H F, Ackerman S J, Tenen D G. Human eosinophil cationic protein: molecular cloning of a cytotoxin and helminthotoxin with ribonuclease activity. J. Exp. Med., 170:163-176, 1989), HL-60 clone 15, is eosinophil-like promyelocytic human cell line which was purchased from American Type Culture Collection (ATCC) Rockville, Md. (catalog #CRL-1964). The cells were maintained in medium consisting of RPMI 1640 with glutamine supplemented with 10% heat inactivated fetal bovine serum (Gibco, Carlsbad, Calif.), 50 IU/mL penicillin, 50 μg/mL streptomycin, and 25 mM HEPES buffer, pH 7.8 at 37° C. in an atmosphere containing 5% CO2. Final differentiation of an eosinophil-like phenotype was initiated by culturing the cells at 5×10^5 cells/mL in the above medium containing 0.5 mM butyric acid (Sigma-Aldrich) for 5 days as previously described by Tiffany H L, Li F, and Rosenberg H F, Hyperglycosylation of eosinophil ribonuclease in a promyelocytic leukemia cell line and in differentiated peripheral blood progenitor cells J. Leukoc. Biol. 58: 49-54, 1995; and by Tiffany H L, Alkhatib G, Combadiere C, Berger E A, and Murphy P M., CC Chemokine receptors are differentially regulated by IL-5 during maturation of eosinophilic HL-60 cells. J. Immunol. 160:1385-1392, 1998. The cells were washed and resuspended at 2.5×10^6 per mL in phenol free RPMI-1640 (Cellgro; Mediatech Inc.). Aliquots of cells in 15 mL plastic tubes were preincubated with indicated concentration of test peptide (dissolved in PBS, pH 7.0) for 10 minutes followed by treatment of the cells with 100 nM PMA for 2 hours. The reaction was terminated by placing the tubes on ice and centrifugation of cells at 400 g for 5 min at 4° C. The eosinophil peroxidase (EPO) activity released by HL-60 clone 15 cells was assayed using TMB according to a previously established technique Paige et al (see above) and by Lacy P, Mahmudi-Azer S, Bablitz B, Hagen S C, Velazquez J R, Man S F, Moqbel R. Rapid mobilization of intracellularly stored RANTES in response to interferon-gamma in human eosinophils. Blood 94:23-32, 1999. Briefly, add 50 μL aliquots of the supernatant to 96-well microtiter plate followed by addition of 100 μL of the tetramethylbenzidine (TMB) substrate solution and incubate at room temperature for 15 minutes. The reaction was terminated by addition of 50 μL of 1.0 M sulfuric acid and absorbance was read at 450 nm in a spectrophotometric microplate reader (Molecular Devices, Sunnyvale, Calif.). The amount of secreted EPO was expressed as percentage of total content using the amount obtained in the same number of triton X-100-lysed cells.
as §1, with “standard EPO” for “standard granzyme”, “from HL-60 clone 15” for “from NK-92”, “of EPO,” for “of granzyme,”, “released EPO” for “released granzyme”, “intracellular EPO in HL-60 clone 15” for “intracellular granzyme from NK-92”, “of intracellular EPO” for “of the enzyme”

[3] = tested on: U937 cells; test: Inhibition of lysozyme release from U937 cells; assay type: cell-based, human; settings: for % Inhibition Lysozyme: at 50 μM of test peptide, 100 nM PMA; for Effect on PMA stimulated lysozyme secretion: pre-incubation with 50 to 100 μM (RNS: any time point or concentration tested)
Description: U937 is a monocyte-like human cell line which was purchased from American Type Culture Collection (ATCC) Rockville, Md. (catalog #CRL-15932). The cells were maintained in medium consisting of RPMI 1640 with glutamine supplemented with 10% heat inactivated fetal bovine serum (Gibco, Carlsbad, Calif.), 50 IU/mL, penicillin, 50 μg/mL streptomycin at 37° C. in an atmosphere containing 5% CO2. U937 cells were washed and resuspended at 2.5×10^6 cells/mL in phenol red free RPMI-1640 medium (Cellgro, Mediatech Inc.). Aliquots of cells in 15 mL plastic tubes were preincubated with indicated concentrations of test peptides (dissolved in PBS, pH 7.0) for 10 min at 37° C. The cells were then stimulated with 100 nM PMA for 1 hour. The cells were then centrifuged at 400×g for 5 min at 4° C. Lysozyme released from U937 cells was measured using spectrophotometric assay as described previously by Ralph et al., 1976. (Ralph P, Moore M A S, and Nilsson K. Lysozyme synthesis by established human and murine histocytic lymphoma cell lines. J. Exp. Med. 143:1528-33, 1976). Briefly. 100 μL of supernatants were placed in a 96-well microtiter plate and mixed with 100 μL of a Micrococcus lysodeikticus (Sigma-Aldrich) suspension (0.3 mg/mL in 0.1 M sodium phosphate buffer, pH 7.0), incubated for […] at room temperature and decrease in absorbance at 450 nm was measured. Chicken egg white lysozyme (EMD Biosciences) was used as a standard.

[4] = Solubility in 0.5 N saline; assay type: physicochemical; settings: in 0.5 N Saline at pH 6.5

Structure (SMILES): CCCCCCCCCCCCCC(=O)NCC(=O)N[C@@H](C)C(=O)N[C@@H](CCC(N)=O)C(=O)N[C@@H](Cc1ccccc1)C(=O)N[C@@H](CO)C(=O)N[C@@H](CCCCN)C(=O)N[C@H](C(=O)N[C@@H](C)C(=O)N[C@@H](C)C(=O)N[C@@H](CCCCN)C(=O)NCC(=O)N[C@@H](CCC(=O)O)C(=O)N[C@@H](C)C(=O)N[C@@H](C)C(=O)N[C@@H](C)C(=O)N[C@@H](CCC(=O)O)C(=O)N[C@@H](CCCNC(=N)N)C(=O)N1CCC[C@H]1C(=O)NCC(=O)N[C@@H](CCC(=O)O)C(=O)N[C@@H](C)C(=O)N[C@@H](C)C(=O)N[C@H](C(=O)N[C@@H](C)C(=O)O)C(C)C)[C@@H](C)O [MANS peptide] (Myristoyl-GAQFSKTAAKGEAAAERPGEAAVA-OH; C-terminus assumed)
Reduction in granzyme secretion relative to the PMA control reference ([1]; 100 μM peptide, 100 nM PMA 2 hour): about 60%
% Inhibition Granzyme [1]: 76.0%
% Inhibition EPO [2]: 46.1%
% Inhibition Lysozyme [3]: 40.8%
Effect on PMA stimulated lysozyme secretion [3]: significantly attenuated
solubility [4]: < 5000 µg/mL

Structure (SMILES): CCCCCCCCCCCCCC(=O)O[C@@H]1[C@@H](C)[C@@]2(O)[C@@H](C=C(CO)C[C@]3(O)C(=O)C(C)=C[C@@H]23)[C@@H]2C(C)(C)[C@]12OC(C)=O [PMA, phorbol 12-myristate 13-acetate]
Granzyme secretion relative to control as 100% ([1]; 100 nM PMA, 2 hour incubation): about 220%

solubility [4]: > 15000 µg/mL
Structure (SMILES): CCCCCCCCCCCCCC(=O)NCC(=O)N[C@H](C(=O)N[C@@H](C)C(=O)N1CCC[C@H]1C(=O)N[C@@H](C)C(=O)N[C@@H](C)C(=O)N[C@@H](CCC(=O)O)C(=O)NCC(=O)N[C@@H](C)C(=O)NCC(=O)N[C@@H](C)C(=O)N[C@@H](CCC(=O)O)C(=O)N[C@H](C(=O)N[C@@H](CCCCN)C(=O)N[C@@H](CCCNC(=N)N)C(=O)N[C@@H](C)C(=O)N[C@@H](CO)C(=O)N[C@@H](C)C(=O)N[C@@H](CCC(=O)O)C(=O)N[C@@H](C)C(=O)N[C@@H](CCCCN)C(=O)N[C@@H](CCC(N)=O)C(=O)N[C@@H](C)C(=O)N[C@@H](Cc1ccccc1)C(=O)O)C(C)C)[C@@H](C)O [RNS peptide, reference compound] (Myristoyl-GTAPAAEGAGAEVKRASAEAKQAF-OH; C-terminus assumed)
Effect on PMA-enhanced granzyme secretion ([1]; any of the time points or concentrations tested): did not affect
% Inhibition Granzyme [1]: 29.5%
% Inhibition EPO [2]: 0%
% Inhibition Lysozyme [3]: 0%
Effect on PMA stimulated lysozyme secretion [3]: did not affect

Structure (SMILES): CCCCCCCCCCCCCC(=O)NCC(=O)N[C@@H](C)C(=O)N[C@@H](CCC(N)=O)C(=O)N[C@@H](Cc1ccccc1)C(=O)N[C@@H](CO)C(=O)N[C@@H](CCCCN)C(=O)N[C@H](C(=O)N[C@@H](C)C(=O)N[C@@H](C)C(=O)N[C@@H](CCCCN)C(=O)NCC(=O)N[C@@H](CCC(=O)O)C(=O)O)[C@@H](C)O [SEQ ID NO: 13, N-myristoyl-GAQFSKTAAKGE] (Myristoyl-GAQFSKTAAKGE-OH; C-terminus assumed)
% Inhibition EPO [2]: 25.2%
% Inhibition Lysozyme [3]: 85.2%
solubility [4]: > 2000 µg/mL

solubility [4]: > 10000 µg/mL
Structure (SMILES): CCCCCCCCCCCCCC(=O)NCC(=O)N[C@@H](C)C(=O)N[C@@H](CCC(N)=O)C(=O)N[C@@H](Cc1ccccc1)C(=O)N[C@@H](CO)C(=O)N[C@@H](CCCCN)C(=O)N[C@H](C(=O)N[C@@H](C)C(=O)N[C@@H](C)C(=O)N[C@@H](CCCCN)C(=O)O)[C@@H](C)O [SEQ ID NO: 15, N-myristoyl-GAQFSKTAAK] (Myristoyl-GAQFSKTAAK-OH; C-terminus assumed)
% Inhibition EPO [2]: 37.4%
% Inhibition Lysozyme [3]: 56.6%
